Counter-ions that a name gives are not always drawn.
Tested on: not given
Assay: not given
Settings: not given

melting point [°C]	Structure (SMILES)
55.2 to 58.8	COc1cc(N2CCNCC2)c2c(c1)N(Cc1cccc(Cl)c1)C(=O)CO2 (as salt: hydrochloride)
250.9 to 253.8	O=C1COc2c(N3CCNCC3)cccc2N1Cc1ccccc1 (as salt: hydrochloride)

Biological target: T1, recombinant human 5-HT6 receptor (Homo sapiens, UniProt P50406)
T1 construct: expressed in transfected cells; cell membranes used
Assay: Radioligand binding: competition for [3H]LSD binding in membranes of HEK293 cells expressing the receptor
Settings: [3H]LSD (5 nM), HEK293 cell membranes, 60 min at 37° C., pH 7.4, duplicate determinations
Protocol: The binding activity of compounds of this invention in vitro was determined as follows. Duplicate determinations of ligand affinity are made by competing for binding of [^3H]LSD in cell membranes derived from HEK293 cells stably expressing recombinant human 5-HT6 receptor.
All determinations were made in assay buffer containing 50 mM Tris-HCl, 10 mM MgSO4, 0.5 mM EDTA, 1 mM ascorbic acid, pH 7.4 at 37° C., in a 250 microliter reaction volume. Assay tubes containing [^3H] LSD (5 nM), competing ligand, and membrane were incubated in a shaking water bath for 60 min. at 37° C., filtered onto Packard GF-B plates (presoaked with 0.3% PEI) using a Packard 96 well cell harvester and washed 3 times in ice cold 50 mM Tris-HCl. Bound [^3H] LSD was determined as radioactive counts per minute using Packard TopCount.
Displacement of [3H]LSD from the binding sites was quantified by fitting concentration-binding data to a 4-parameter logistic equation:
[formula] where Hill is the Hill slope, [ligand] is the concentration of competing radioligand and IC50 is the concentration of radioligand producing half-maximal specific binding of radioligand. The specific binding window is the difference between the Bmax and the basal parameters.

T1 sequence (P50406 whole entry): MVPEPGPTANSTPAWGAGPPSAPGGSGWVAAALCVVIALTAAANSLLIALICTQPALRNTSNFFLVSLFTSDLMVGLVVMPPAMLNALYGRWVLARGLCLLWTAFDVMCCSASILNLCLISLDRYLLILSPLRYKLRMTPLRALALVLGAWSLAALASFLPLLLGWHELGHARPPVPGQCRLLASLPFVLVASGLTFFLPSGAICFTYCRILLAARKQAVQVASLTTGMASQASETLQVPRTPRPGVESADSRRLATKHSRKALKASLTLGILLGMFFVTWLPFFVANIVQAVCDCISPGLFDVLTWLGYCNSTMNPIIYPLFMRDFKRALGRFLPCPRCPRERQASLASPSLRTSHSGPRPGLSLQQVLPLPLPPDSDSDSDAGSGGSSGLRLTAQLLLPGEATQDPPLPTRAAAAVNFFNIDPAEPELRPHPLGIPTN

Structure (SMILES)	Ki [nM]
O=C1COc2c(N3CCNCC3)cc(F)cc2N1Cc1ccccc1F [4-(2-fluoro-benzyl)-6-fluoro-8-piperazin-1-yl-4H-benzo[1,4]oxazin-3-one]	0.676
O=C1COc2c(N3CCNCC3)cccc2N1Cc1ccccc1F [4-(2-fluoro-benzyl)-8-piperazin-1-yl-4H-benzo[1,4]oxazin-3-one]	0.912
CC1(C)Oc2c(N3CCNCC3)cccc2N(Cc2cccc(Cl)c2)C1=O [4-(3-Chloro-benzyl)-2,2-dimethyl-8-piperazin-1-yl-4H-benzo[1,4]oxazin-3-one]	0.759
CC1(C)Oc2c(N3CCNCC3)cccc2N(Cc2ccccc2)C1=O [4-Benzyl-2,2-dimethyl-8-piperazin-1-yl-4H-benzo[1,4]oxazin-3-one]	0.741
C[C@@H]1Oc2c(N3CCNCC3)cccc2N(Cc2ccccc2)C1=O [(S)-4-Benzyl-2-methyl-8-piperazin-1-yl-4H-benzo[1,4]oxazin-3-one]	0.759

Source: patent US7141562B2, “Substituted benzoxazinones and uses thereof” (Roche Palo Alto LLC, priority 2002, dated 2006)
